Reference: ChEMBL document CHEMBL1201862, “PubChem BioAssay data set” (2004)
The source made the active and inactive calls.

Tests used:
[1] = target: Fructose-bisphosphate aldolase (Mycobacterium tuberculosis, UniProt P9WQA3); test: Fluorescence-based biochemical high throughput dose response assay for inhibitors of the fructose-bisphosphate aldolase (FBA) of M. tuberculosis.; assay type: functional
[2] = system: H4; test: Luminescence Cell-Based Dose Response HTS to Identify Activators of 5'UTR Stem-Loop Driven Prion Protein mRNA Translation in H4 Neuroglioblastoma Cells. [Related pubchem assays: 1829 (Project Summary), 1814 (Primary HTS)]; assay type: functional; conditions: Homo sapiens
[3] = Luminescence Cell-Based Dose Response HTS to Identify Activators of Luciferase Translation or Activity in H4 […] Cells. [Related pubchem assays: 1829 (Project Summary), 1814 (Primary HTS)]; assay type: functional
[4] = Luminescence Cell-Based Dose Confirmation HTS to Identify Activators of 5'UTR Stem-Loop Driven Alpha-Synuclein mRNA Translation in H4 Neuroglioblastoma Cells. [Related pubchem assays: 1829 (Project Summary), 1814 (Primary HTS)]; assay type: functional
[5] = Shn3 3'UTR reporter signal decrease – cell-based, Clone20 osteoblasts, firefly luciferase, cherry-pick, set 2, Schnurri-3 inhibitor project, dose response (AID 720490); assay type: functional;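 note: actives lower the luminescence signal as inhibitors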
[6] = target: ATP-dependent molecular chaperone HSP82 (Candida albicans (strain WO-1) (Yeast), UniProt C4YTQ8); test: steroid-induced GRE reporter decrease in yeast – S. cerevisiae, luminescence, Hsp90 inhibitor project, dose response (AID 2400); assay type: functional, cell-based;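 note: beta-galactosidase luminescence from glucocorticoid response element reporter as proxy for Hsp90 function; inhibitor potency where signal loss means Hsp90 inhibition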
[7] = target: T1, Serine/threonine-protein phosphatase (Candida dubliniensis (strain CD36 / CBS 7987 / NCPF 3949 / NRRLY-17841) (Yeast), UniProt B9W6M3); test: Fluorescence Cell-Based Secondary Assay to Identify Inhibitors of Calcineurin. [Related pubchem assays (depositor defined):AID1979, AID2007]; assay type: functional
T1 sequence (B9W6M3 whole entry): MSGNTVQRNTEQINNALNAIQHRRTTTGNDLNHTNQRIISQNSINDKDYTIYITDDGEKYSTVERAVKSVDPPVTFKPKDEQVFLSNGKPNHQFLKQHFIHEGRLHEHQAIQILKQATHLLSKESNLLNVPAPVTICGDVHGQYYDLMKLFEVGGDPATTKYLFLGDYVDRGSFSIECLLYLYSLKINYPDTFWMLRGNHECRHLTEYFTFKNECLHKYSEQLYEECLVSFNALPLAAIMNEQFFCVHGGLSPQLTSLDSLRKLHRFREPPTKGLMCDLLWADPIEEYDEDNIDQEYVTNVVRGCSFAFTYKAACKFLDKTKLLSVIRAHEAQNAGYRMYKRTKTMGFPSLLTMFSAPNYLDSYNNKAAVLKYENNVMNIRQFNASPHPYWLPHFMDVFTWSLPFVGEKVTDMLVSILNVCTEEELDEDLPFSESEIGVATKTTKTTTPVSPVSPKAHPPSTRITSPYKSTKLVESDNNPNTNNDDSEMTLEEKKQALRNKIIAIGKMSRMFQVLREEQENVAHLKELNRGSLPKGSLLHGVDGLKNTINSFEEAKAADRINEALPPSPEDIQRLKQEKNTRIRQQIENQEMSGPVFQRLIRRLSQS

[8] = target: T1, Serine/threonine-protein phosphatase; test: blockers of CaCl2-induced CDRE-lacZ signaling – S. cerevisiae, luminescence, secondary, dose response (AID 2388); assay type: functional, cell-based;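 note: yeast reporter cells carrying a calcineurin-responsive lacZ construct stimulated with calcium chloride; luminescent beta-galactosidase reporter signal in whole cells rather than isolated phosphatase activity; potency for inhibition where a drop in reporter signal means calcineurin blockade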
[9] = EF1alpha-driven Renilla reporter with control 3'UTR suppression – Clone20-Shn3RL cells, dual-Glo, cherry-pick, set 2, counter-screen for Shn3 3'UTR targeting project, dose response (AID 720724); assay type: functional, cell-based; conditions: Dual-Go Shn3RL
[10] = reduction of Shn3 3'UTR-driven luciferase in osteoblasts – cell-based, Clone20 osteoblasts, firefly luciferase, cherry-picked, dose response (AID 624132); assay type: functional;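 note: firefly luciferase luminescence from reporter carrying the Shn3 3'UTR in osteoblasts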
[11] = target: T2, Protein skinhead-1 (Caenorhabditis elegans, UniProt P34707); assay type: functional
T2 sequence (P34707 whole entry): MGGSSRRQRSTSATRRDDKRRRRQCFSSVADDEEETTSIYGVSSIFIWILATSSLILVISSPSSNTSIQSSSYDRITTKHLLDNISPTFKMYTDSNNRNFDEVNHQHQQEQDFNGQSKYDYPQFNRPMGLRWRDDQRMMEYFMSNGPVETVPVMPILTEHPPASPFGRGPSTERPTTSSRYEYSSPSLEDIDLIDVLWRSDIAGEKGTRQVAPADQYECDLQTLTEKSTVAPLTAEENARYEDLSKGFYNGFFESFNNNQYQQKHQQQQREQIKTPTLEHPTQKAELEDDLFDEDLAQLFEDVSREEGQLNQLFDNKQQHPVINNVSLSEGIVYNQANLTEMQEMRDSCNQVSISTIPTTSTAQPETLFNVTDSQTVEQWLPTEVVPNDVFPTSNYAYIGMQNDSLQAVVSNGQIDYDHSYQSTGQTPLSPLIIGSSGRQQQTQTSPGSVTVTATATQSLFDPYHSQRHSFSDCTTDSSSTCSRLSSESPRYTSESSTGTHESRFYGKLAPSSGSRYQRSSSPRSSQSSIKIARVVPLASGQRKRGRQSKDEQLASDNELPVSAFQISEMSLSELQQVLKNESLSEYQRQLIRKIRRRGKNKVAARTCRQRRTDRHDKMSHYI

[12] = system: INS1; test: INS-1E survival protection against cytokine death – cell-based, luminescence, retest, dose response (AID 449756); assay type: functional; conditions: Rattus norvegicus;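 note: cell death triggered by IL-1 beta plus TNF-alpha plus IFN-gamma mixture; protective hits raise ATP signal compared with cytokine alone wells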
[13] = non-specific 3'UTR reporter inhibition in Clone20-Shn3RL – cell-based, Renilla luciferase, cherry-picked, counter-screen for Shn3 inhibitor project, dose response (AID 624133); assay type: functional
[14] = fluconazole-exposed Candida albicans growth modulators – fluorescence, retest, confirmation (AID 2467); assay type: functional, cell-based
[15] = NIH-3T3 fibroblast cytotoxicity, dose response, cytotoxicity control, cell-based, fluorescence, Alamar Blue, secondary assay (AID 2327); assay type: functional;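 note: NIH-3T3 mouse fibroblasts cultured with fluconazole at 8 µg/mL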
[16] = loss of viability in HepG2 cells – cell-based, CellTiter-Glo, cherry-picked, cytotoxicity control for Shn3 inhibitor project, dose response (AID 624134); assay type: functional
[17] = CMV-driven luciferase expression suppression in HEK293 – cell-based, luminescence, dry powder, counter-screen for Pax8 inhibitor project, dose response (AID 743020); assay type: functional
[18] = target: Paired box protein Pax-8 (Homo sapiens, UniProt Q06710); test: PAX8 transcriptional activity inhibition in RMG-I – RMG-I cells, luciferase, cherry-pick, dose response (AID 687027); assay type: functional, cell-based;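 note: luciferase reporter driven by Pax8 target thyroperoxidase promoter measured by SteadyGlo luminescence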
[19] = target: Galanin receptor type 3 (Homo sapiens, UniProt O60755); test: Fluorescence-based cell-based primary high throughput dose response assay to identify antagonists of the Galanin Receptor 3 (GalR3).; assay type: functional
[20] = target: T3, COUP transcription factor 2 (Homo sapiens, UniProt P24468); test: Luminescence-based cell-based high throughput dose response assay to identify inhibitors of COUP-TFII (NR2F2).; assay type: functional;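 note: HEK293 cells transiently cotransfected with COUP-TFII expression vector and reporter; luciferase reporter luminescence driven by COUP-TFII from the pX2-168 reporter plasmid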
T3 sequence (P24468 whole entry): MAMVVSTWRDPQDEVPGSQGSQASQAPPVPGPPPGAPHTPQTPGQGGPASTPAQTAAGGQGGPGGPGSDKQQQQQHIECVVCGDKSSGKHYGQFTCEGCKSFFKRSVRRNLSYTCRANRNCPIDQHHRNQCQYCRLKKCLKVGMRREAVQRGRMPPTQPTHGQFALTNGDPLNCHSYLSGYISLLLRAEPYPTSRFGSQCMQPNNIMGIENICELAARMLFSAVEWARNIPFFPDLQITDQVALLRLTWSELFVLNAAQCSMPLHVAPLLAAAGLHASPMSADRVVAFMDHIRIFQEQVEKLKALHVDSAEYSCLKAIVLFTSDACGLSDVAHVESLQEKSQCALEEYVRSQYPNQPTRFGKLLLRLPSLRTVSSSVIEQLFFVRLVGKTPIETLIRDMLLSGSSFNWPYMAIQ

[21] = HEK-293T viability loss after treatment – luminescence, T-cell screen hits, cytotoxicity control for TCR NF-kB inhibitor project, dose response (AID 489026); assay type: functional, cell-based;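 note: cells exposed to compound about 14 hours before the viability readout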
[22] = cells; assay type: functional, cell-based; conditions: HEK-CNG
[23] = target: Beta-galactosidase (Escherichia coli, UniProt Q8VNN2); test: Dose response counterscreen for EBI2 assay utilizing the enzyme, b-galactosidase.; assay type: functional
[24] = IGROV1 cell killing – plate reader, dry powder samples, PAX8 inhibitor project, dose response (AID 743043); assay type: functional, cell-based; conditions: IGROV-1
[25] = OVCAR-3 cell viability loss – plate reader, dry powder samples, PAX8 inhibitor project, dose response (AID 743044); assay type: functional, cell-based
[26] = OVCAR8 cell viability loss – plate reader, dry powder samples, PAX8 project, dose response (AID 743197); assay type: functional, cell-based; conditions: OVCAR-8

Paired box protein Pax-8, sequence (Q06710 whole entry): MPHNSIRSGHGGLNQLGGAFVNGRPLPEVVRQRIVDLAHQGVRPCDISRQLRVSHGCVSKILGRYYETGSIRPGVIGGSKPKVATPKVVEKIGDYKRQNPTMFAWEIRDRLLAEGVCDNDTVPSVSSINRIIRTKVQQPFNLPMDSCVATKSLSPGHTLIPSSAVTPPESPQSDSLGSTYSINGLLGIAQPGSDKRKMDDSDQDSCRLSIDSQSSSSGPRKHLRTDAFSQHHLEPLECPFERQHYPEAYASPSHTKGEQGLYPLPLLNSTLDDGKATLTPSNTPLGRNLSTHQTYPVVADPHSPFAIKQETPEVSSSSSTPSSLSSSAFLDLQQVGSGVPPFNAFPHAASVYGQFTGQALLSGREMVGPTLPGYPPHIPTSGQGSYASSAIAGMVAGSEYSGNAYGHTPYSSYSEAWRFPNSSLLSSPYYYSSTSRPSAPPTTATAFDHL
Galanin receptor type 3, sequence (O60755 whole entry): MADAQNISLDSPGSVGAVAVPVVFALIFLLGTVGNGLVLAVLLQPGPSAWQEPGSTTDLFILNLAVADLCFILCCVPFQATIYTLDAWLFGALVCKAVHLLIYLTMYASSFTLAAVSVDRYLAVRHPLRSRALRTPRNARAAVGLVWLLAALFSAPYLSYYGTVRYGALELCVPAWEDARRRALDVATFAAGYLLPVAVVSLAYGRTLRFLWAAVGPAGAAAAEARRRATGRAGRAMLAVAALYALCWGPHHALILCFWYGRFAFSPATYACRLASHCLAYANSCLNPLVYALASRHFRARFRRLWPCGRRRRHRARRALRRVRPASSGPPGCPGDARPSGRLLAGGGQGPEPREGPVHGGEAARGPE
Beta-galactosidase, sequence (Q8VNN2 whole entry): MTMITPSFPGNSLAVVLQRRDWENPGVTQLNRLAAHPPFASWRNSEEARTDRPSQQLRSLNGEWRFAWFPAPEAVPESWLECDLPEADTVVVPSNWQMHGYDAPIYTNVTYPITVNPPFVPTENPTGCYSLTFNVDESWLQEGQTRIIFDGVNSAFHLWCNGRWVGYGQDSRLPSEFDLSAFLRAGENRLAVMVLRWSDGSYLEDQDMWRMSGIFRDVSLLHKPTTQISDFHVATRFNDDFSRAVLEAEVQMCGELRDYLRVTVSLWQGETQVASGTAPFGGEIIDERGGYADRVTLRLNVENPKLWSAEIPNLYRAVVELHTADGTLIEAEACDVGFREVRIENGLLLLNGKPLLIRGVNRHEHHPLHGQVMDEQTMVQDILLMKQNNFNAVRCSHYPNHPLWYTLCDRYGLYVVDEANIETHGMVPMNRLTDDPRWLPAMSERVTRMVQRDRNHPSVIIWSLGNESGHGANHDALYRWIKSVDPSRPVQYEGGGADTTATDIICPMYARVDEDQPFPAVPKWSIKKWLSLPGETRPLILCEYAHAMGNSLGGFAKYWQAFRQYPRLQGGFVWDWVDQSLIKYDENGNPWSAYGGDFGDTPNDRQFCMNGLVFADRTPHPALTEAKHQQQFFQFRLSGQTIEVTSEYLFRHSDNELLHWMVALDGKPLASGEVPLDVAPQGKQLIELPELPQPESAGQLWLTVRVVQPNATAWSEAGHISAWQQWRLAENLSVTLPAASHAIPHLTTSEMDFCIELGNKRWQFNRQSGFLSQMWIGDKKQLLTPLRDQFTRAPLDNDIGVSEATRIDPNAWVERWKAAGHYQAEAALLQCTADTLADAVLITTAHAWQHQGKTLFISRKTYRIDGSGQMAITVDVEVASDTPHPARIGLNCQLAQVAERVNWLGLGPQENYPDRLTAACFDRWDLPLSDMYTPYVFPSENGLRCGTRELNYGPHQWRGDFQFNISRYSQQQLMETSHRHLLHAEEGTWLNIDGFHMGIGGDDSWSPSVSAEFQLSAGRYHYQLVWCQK
Fructose-bisphosphate aldolase, sequence (P9WQA3 whole entry): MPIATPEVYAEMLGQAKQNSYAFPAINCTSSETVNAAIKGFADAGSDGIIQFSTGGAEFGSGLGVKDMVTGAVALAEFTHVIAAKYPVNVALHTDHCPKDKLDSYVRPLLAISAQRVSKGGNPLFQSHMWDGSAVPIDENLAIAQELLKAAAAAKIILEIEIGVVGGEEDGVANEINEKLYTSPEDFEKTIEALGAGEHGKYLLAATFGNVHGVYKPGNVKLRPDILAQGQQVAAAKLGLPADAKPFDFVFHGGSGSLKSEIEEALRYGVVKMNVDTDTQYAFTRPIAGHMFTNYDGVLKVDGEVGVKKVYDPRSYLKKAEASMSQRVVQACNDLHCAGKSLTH
ATP-dependent molecular chaperone HSP82, sequence (C4YTQ8 whole entry): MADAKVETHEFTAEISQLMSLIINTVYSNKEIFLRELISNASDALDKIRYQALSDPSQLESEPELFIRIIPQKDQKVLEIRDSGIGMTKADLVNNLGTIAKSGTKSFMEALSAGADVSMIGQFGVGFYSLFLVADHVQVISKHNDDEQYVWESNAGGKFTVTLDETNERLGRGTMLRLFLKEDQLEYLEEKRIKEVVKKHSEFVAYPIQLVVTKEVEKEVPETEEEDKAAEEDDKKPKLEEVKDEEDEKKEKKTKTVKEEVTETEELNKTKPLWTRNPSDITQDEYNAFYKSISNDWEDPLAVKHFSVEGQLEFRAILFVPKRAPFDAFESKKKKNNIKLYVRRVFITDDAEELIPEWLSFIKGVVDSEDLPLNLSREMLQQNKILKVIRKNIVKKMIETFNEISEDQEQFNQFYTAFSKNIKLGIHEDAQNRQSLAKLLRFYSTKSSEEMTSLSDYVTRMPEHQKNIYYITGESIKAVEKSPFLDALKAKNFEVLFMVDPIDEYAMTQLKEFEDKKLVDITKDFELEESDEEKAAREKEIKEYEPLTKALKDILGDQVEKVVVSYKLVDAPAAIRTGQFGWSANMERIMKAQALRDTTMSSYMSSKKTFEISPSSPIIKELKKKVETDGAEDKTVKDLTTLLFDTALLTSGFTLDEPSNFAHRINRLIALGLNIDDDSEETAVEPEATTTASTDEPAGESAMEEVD

SMILES: Cc1ccc(C2CC(c3ccccc3)=NN2c2ccccc2)o1 (stereo not drawn)
- IC50 [1]: > 0.37 µM (active)
- EC50 [2]: 27.9 µM (active)
- EC50 [3]: > 120 µM (not active)
- EC50 [4]: 111 µM (active)

SMILES: Cc1nc2ccccc2cc1OCc1ccc(F)cc1
- AC50 [5]: 2.05 µM (active)
- EC50 [6]: 21.1 µM (active)
- EC50 [7]: > 285 µM (inactive)
- EC50 [8]: > 180 µM (inactive)
- AC50 [9]: 4.87 µM (active)
- AC50 [10]: 1.7 µM (active)
- IC50 [11]: 12.2 µM (active)
- AC50 [12]: 4.84 µM (active)
- AC50 [13]: 22.1 µM (active)
- EC50 [14]: 1.58 µM (active)
- EC50 [15]: > 160 µM (inactive)
- AC50 [16]: 41.7 µM (active)

SMILES: C[C@@H]1CCCCO[C@H](CN(C)CC2CCCCC2)[C@H](C)CN([C@@H](C)CO)C(=O)c2cc(NS(=O)(=O)c3ccc(Cl)cc3)ccc2O1
- AC50 [17]: 50.5 µM (active)
- AC50 [18]: 6.43 µM (active)

SMILES: Cn1nc(C(C)(C)C)cc1C(=O)NCc1cc(F)cc2c1OCOC2
- IC50 [19]: 0.987 µM (active)
- IC50 [20]: 6.69 µM (active)
- AC50 [12]: 4.13 µM (active)
- IC50 [21]: > 80 µM (inactive)
- EC50 [22]: > 29.9 µM (inactive)

SMILES: Cc1c(C(=O)N2CCN(c3ncccn3)CC2)oc2ccc(Cl)cc12
- IC50 [23]: > 80 µM (inactive)

SMILES: Cc1ccc(S(=O)(=O)N(C)C[C@H]2OCCCC[C@H](C)Oc3ccc(NS(=O)(=O)c4ccc(Cl)cc4)cc3C(=O)N([C@H](C)CO)C[C@@H]2C)cc1
- AC50 [24]: 45.7 µM (active)
- AC50 [25]: 17.9 µM (active)
- AC50 [18]: 4.09 µM (active)
- AC50 [26]: 31.7 µM (active)
